From PubChem BioAssay (NCI)
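These data come from cells grown in 96-well plates and exposed to compound for 48 hours at five concentrations. GI50 is the concentration that inhibits growth by half. TGI is the concentration that stops growth completely.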

Tests used:
Assay in all cases: DTP human tumour cell line panel, 48 h
SK-MEL-5 melanoma = tested on: SK-MEL-5 melanoma
UACC-257 melanoma = tested on: UACC-257 melanoma
KM12 colon = tested on: KM12 colon
EKVX NSCLC = tested on: EKVX NSCLC
LOX IMVI melanoma = tested on: LOX IMVI melanoma
A498 renal = tested on: A498 renal
SNB-75 CNS = tested on: SNB-75 CNS
SF-268 CNS = tested on: SF-268 CNS
SW-620 colon = tested on: SW-620 colon
NCI/ADR-RES ovarian = tested on: NCI/ADR-RES ovarian
PC-3 prostate = tested on: PC-3 prostate
HS 578T breast = tested on: HS 578T breast
OVCAR-5 ovarian = tested on: OVCAR-5 ovarian
HCT-116 colon = tested on: HCT-116 colon
COLO 205 colon = tested on: COLO 205 colon
HOP-92 NSCLC = tested on: HOP-92 NSCLC
HT29 colon = tested on: HT29 colon
SN12C renal = tested on: SN12C renal
NCI-H23 lung = tested on: NCI-H23 lung
IGROV1 ovarian = tested on: IGROV1 ovarian
HCT-15 colon = tested on: HCT-15 colon
SR leukemia = tested on: SR leukemia
UO-31 renal = tested on: UO-31 renal
SK-OV-3 ovarian = tested on: SK-OV-3 ovarian
A549 NSCLC = tested on: A549 NSCLC
OVCAR-8 ovarian = tested on: OVCAR-8 ovarian
MDA-MB-231 breast = tested on: MDA-MB-231 breast
CCRF-CEM leukemia = tested on: CCRF-CEM leukemia

Work on `CC1=C2C(=C[C@@](C)(CO)[C@@H]2OC(=O)N(C)CCN(C)C(=O)OC(C)(C)C)C(=O)[C@](C)(O)C12CC2` yielded a GI50 (SK-MEL-5 melanoma) of 8.84 µM, a TGI (SK-MEL-5 melanoma) of 16.4 µM and a GI50 (UACC-257 melanoma) of 10.1 µM. For the same compound, the TGI (UACC-257 melanoma) was 26.3 µM, the GI50 (KM12 colon) was 9.9 µM and the TGI (KM12 colon) was > 50 µM. For the same compound, the GI50 (EKVX NSCLC) was 10.7 µM, the TGI (EKVX NSCLC) was 29.1 µM and the GI50 (LOX IMVI melanoma) was 12.2 µM. For the same compound, the TGI (LOX IMVI melanoma) was > 50 µM, the GI50 (A498 renal) was 8.8 µM and the TGI (A498 renal) was 20.1 µM. For the same compound, the GI50 (SNB-75 CNS) was 5.29 µM, the TGI (SNB-75 CNS) was 11.8 µM and the GI50 (SF-268 CNS) was 1.78 µM. For the same compound, the TGI (SF-268 CNS) was 18.7 µM, the GI50 (SW-620 colon) was 12.8 µM and the TGI (SW-620 colon) was > 50 µM. It also gave a GI50 (NCI/ADR-RES ovarian) of 3.05 µM, a TGI (NCI/ADR-RES ovarian) of 23.7 µM and a GI50 (PC-3 prostate) of 7.19 µM. The TGI (PC-3 prostate) was 28.6 µM, the GI50 (HS 578T breast) was 15.3 µM and the TGI (HS 578T breast) was > 50 µM. The GI50 (OVCAR-5 ovarian) was 2.67 µM, the TGI (OVCAR-5 ovarian) was > 50 µM and the GI50 (HCT-116 colon) was 2.76 µM. For the same compound, the TGI (HCT-116 colon) was > 50 µM, the GI50 (COLO 205 colon) was 5.27 µM and the TGI (COLO 205 colon) was 14.3 µM. The GI50 (HOP-92 NSCLC) was 8.08 µM, the TGI (HOP-92 NSCLC) was 25.1 µM and the GI50 (HT29 colon) was 2.32 µM. The TGI (HT29 colon) was > 50 µM, the GI50 (SN12C renal) was 11.1 µM and the TGI (SN12C renal) was > 50 µM. It also gave a GI50 (NCI-H23 lung) of 2.08 µM, a TGI (NCI-H23 lung) of 15.9 µM and a GI50 (IGROV1 ovarian) of 1.97 µM. The TGI (IGROV1 ovarian) was 18.8 µM, the GI50 (HCT-15 colon) was 3.98 µM and the TGI (HCT-15 colon) was > 50 µM. The GI50 (SR leukemia) was 2.39 µM, the TGI (SR leukemia) was > 50 µM and the GI50 (UO-31 renal) was 2.17 µM. The TGI (UO-31 renal) was 14.9 µM, the GI50 (SK-OV-3 ovarian) was 6.93 µM and the TGI (SK-OV-3 ovarian) was 23 µM. The GI50 (A549 NSCLC) was 5.88 µM, the TGI (A549 NSCLC) was > 50 µM and the GI50 (OVCAR-8 ovarian) was 6.51 µM. For the same compound, the TGI (OVCAR-8 ovarian) was 45.7 µM, the GI50 (MDA-MB-231 breast) was 9.64 µM and the TGI (MDA-MB-231 breast) was 39.3 µM. For the same compound, the GI50 (CCRF-CEM leukemia) was 18.8 µM.
